We go through 7 molecules from patent publication US20080249081A1, “COMPOUNDS FOR THE TREATMENT OF PAIN AND SCREENING METHODS THEREFOR” (priority 2006, published 2008).

Usually EC50 stands for the concentration at which the effect is half-maximal. Lower therefore signals higher potency in that assay.

Molecules are shown by their SMILES.

One test addresses T1, human MrgX2 receptor (Homo sapiens, UniProt Q96LB1).
T1 construct: expressed in transfected cells; host or cells: NIH3T3
T1 sequence (Q96LB1 1-330): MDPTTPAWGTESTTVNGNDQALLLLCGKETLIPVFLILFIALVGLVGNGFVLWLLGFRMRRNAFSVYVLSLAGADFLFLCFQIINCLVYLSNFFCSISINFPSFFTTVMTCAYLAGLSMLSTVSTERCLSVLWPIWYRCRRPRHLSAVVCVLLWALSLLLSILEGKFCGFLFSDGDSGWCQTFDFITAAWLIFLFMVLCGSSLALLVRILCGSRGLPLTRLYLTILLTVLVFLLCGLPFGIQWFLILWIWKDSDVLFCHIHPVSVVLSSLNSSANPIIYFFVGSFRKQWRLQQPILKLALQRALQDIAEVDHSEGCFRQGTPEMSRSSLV
Kind of test: Receptor Selection and Amplification Technology (R-SAT) functional assay, transfected NIH3T3 cells. Format: cell-based. As to conditions: for Human-MrgX2 Eff(%): percent maximal activation relative to STIA. As to the method:
(§1) The functional receptor assay, Receptor Selection and Amplification Technology (R-SAT), was used to investigate the pharmacological properties of test compounds on MRGX1 or MRGX2 receptors. R-SAT is disclosed in U.S. Pat. Nos. 5,707,798, 5,912,132, and 5,955,281, each of which is incorporated by reference herein in its entirety, including any drawings.
(§2) Briefly, NIH3T3 cells were grown in 96-well tissue culture plates to 70-80% confluence. Cells were transfected for 16-20 h with plasmid DNAs using Polyfect (Qiagen Inc.) and the manufacturer's protocols. R-SATs were generally performed with 4 ng/well of receptor and 20 ng/well of β-galactosidase plasmid DNA. The human MrgX1, simian MrgX1, human MrgX2 and simian MrgX2 receptor genes were amplified by PCR from genomic DNA using oligodeoxynucleotide primers as described in U.S. patent application Ser. No. 11/359,209, which is incorporated by reference herein in its entirety, including any drawings. For large-scale transfections, cells were transfected for 16-20 h, then trypsinized and frozen in DMSO. Frozen cells were later thawed, plated at ˜10,000 cells per well of a 96 half-area well plate that contained test compound. With both methods, cells were then grown in a humidified atmosphere with 5% ambient CO2 for five days. The medium was then removed from the plates and marker gene activity was measured by the addition of the β-galactosidase substrate o-nitrophenyl β-D-galactopyranoside (ONPG, in PBS with 0.5% NP-40). The resulting […] reaction was measured in a spectrophotometric plate reader (Titertek Inc.) at 420 nm. All data were analyzed using the computer program XLFit (IDBSm). Efficacy is defined as the percent maximal activation compared to activation by a control compound (BAM22 in the case of human or simian MRGX1, STIA or Cortistatin-14 in the case of human or simian MRGX2). pEC50 is the negative of log(EC50), where EC50 is the calculated molar concentration of test compound that produces 50% of maximum activation.
(§3) Efficacy is reported relative to the ligands Bam22 for MrgX1 and STIA for MrgX2.

Another test has as its target simian MrgX1 receptor (Macaca mulatta, UniProt A0A5F7ZSN8). The description is as above. Format: cell-based, rhesus monkey. As to conditions: percent maximal activation relative to Bam22, read-out: Monkey-MrgX1 Eff(%). The method, then: as §1, §2, §3
The target in a further test is T2, simian MrgX2 receptor (Macaca mulatta, UniProt Q4QXU5).
T2 construct: expressed in transfected cells; host or cells: NIH3T3
T2 sequence (Q4QXU5 whole entry): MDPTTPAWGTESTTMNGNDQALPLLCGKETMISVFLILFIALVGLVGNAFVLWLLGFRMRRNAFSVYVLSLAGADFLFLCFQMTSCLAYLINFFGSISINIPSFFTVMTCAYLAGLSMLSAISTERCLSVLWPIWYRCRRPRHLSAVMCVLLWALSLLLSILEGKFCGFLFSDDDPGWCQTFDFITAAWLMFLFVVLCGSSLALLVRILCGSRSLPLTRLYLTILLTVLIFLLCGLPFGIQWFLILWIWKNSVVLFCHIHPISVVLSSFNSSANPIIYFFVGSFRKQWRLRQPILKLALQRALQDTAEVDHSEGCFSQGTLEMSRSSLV
The description is as above. The settings on record: for Monkey-MrgX2 Eff(%): percent maximal activation relative to STIA. Format: cell-based, rhesus monkey. The method, then: as §1, §2, §3

The target of test [1] is T3, human MrgX1 receptor (Homo sapiens, UniProt Q96LB2). Briefly: Intracellular calcium mobilization (Fura-2) in transfected cells. In kind it is cell-based. The arrangement: expressed in transfected cells. As to conditions: for MrgX1 pEC50: human MrgX1; for MrgX1 Eff %: normalized to response to BAM22 (100%). As to the method: 1. CHO-K1 cells transfected with human MrgX1, simian MrgX1, human MrgX2 and simian MrgX2 receptors or a control receptor at a density 1-3×10^6 cells/mL were washed with phosphate-buffered saline.
T3 sequence (Q96LB2 whole entry): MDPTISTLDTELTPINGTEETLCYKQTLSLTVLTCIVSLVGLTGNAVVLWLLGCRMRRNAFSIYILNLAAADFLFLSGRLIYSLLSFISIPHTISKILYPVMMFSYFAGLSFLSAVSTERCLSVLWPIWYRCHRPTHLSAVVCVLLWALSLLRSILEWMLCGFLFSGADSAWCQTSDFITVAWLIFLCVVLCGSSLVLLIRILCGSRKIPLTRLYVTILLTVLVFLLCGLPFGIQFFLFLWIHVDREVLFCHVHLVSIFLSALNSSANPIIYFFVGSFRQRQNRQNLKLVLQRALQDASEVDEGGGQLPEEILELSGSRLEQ
2. Cells were loaded with 2 μM Fura-2 and analyzed with respect to the rise in intracellular calcium in the presence or absence of varying concentration of test compound.
3. The response was compared to that elicited by the application of the standard reference ligands BAM22 or Cortistatin-14 at 100 nM.
4. Intracellular free calcium concentrations were calculated using the formula:
[formula] • where Kd for Fura-2 is 224 nM, Fmax is the fluorescence in the presence of 0.04% Triton-X100 and Fmin is the fluorescence obtained after the addition of 5 mM EGTA in 30 mM Tris-HCl, pH7.4.

Test [2] concerns the target T3, human MrgX1 receptor. Kind of test: Receptor Selection and Amplification Technology (R-SAT) functional assay, transfected NIH3T3 cells. Format: cell-based. Further details: expressed in transfected cells; host or cells: NIH3T3. As to conditions: for EC50 / Human-MrgX1 pEC50: pEC50 = negative log of molar EC50; for Human-MrgX1 Eff(%): percent maximal activation relative to Bam22. The method, then:
as §1, §2, §3

Chain of simian MrgX1 receptor (A0A5F7ZSN8 1-322): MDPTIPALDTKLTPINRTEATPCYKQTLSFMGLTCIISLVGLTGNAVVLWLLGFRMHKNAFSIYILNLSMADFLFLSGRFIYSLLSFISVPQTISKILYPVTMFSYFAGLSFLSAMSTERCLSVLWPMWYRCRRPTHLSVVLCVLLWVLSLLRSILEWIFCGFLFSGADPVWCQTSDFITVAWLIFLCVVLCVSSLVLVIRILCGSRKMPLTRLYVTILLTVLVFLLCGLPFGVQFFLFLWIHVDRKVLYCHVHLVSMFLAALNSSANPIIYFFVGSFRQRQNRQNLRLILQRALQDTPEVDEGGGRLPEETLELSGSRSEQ

With `N=C(N)NCCC[C@@H](C(N)=O)n1c(-c2cccc(Oc3ccccc3)c2)nc2cc(C(=O)N3CCN(c4ccc(F)cc4)CC3)ccc21` [Compound 1, (α^1R)-α-[3-[(aminoiminomethyl)amino]propyl]-5-[[4-(4-fluorophenyl)-1-piperazinyl]carbonyl]-2-(3-phenoxyphenyl)-1H-benzimidazole-1-acetamide], at human MrgX2 receptor, the “Human-MrgX2 pEC50” value is given as “nr” and the “Human-MrgX2 Eff(%)” value is recorded as −1%. Besides, the Emax on simian MrgX1 receptor is 148%. On simian MrgX2 receptor, the “Monkey-MrgX2 pEC50” value was less than 4.5 and the “Monkey-MrgX2 Eff(%)” value is given as 25%. On human MrgX1 receptor [1], the “MrgX1 pEC50” value is 6.6 and the “MrgX1 Eff %” value was found to be 88%. At human MrgX1 receptor [2], the EC50 is 1000 nM and the “Human-MrgX1 Eff(%)” value stood at 146%.
For the molecule `Cc1cccc(N2CCN(C(=O)c3ccc4c(c3)nc(-c3cccc(Oc5ccccc5)c3)n4[C@@H](CCCNC(=N)N)C(N)=O)CC2C)c1` (stereo partly drawn) [Compound 2, (α^1R)-α-[3-[(aminoiminomethyl)amino]propyl]-5-[[3-methyl-4-(3-methylphenyl)-1-piperazinyl]carbonyl]-2-(3-phenoxyphenyl)-1H-benzimidazole-1-acetamide], at human MrgX2 receptor, the “Human-MrgX2 pEC50” value is on record as “nr” and the “Human-MrgX2 Eff(%)” value came out at 17%. Also, the Emax at simian MrgX1 receptor stood at 316%. Also, the “Monkey-MrgX2 Eff(%)” value on simian MrgX2 receptor was 22%. On human MrgX1 receptor [1], the “MrgX1 pEC50” value came to 7.6 and the “MrgX1 Eff %” value was 92%. Moreover, at human MrgX1 receptor [2], a half-maximal effect (EC50) was put at 631 nM and the “Human-MrgX1 Eff(%)” value was 220%.
Turning to `N=C(N)NCCC[C@@H](C(N)=O)n1c(-c2cccc(Oc3ccccc3)c2)nc2cc(C(=O)NCCc3ccccn3)ccc21` [Compound 3, (α^1R)-α-[3-[(aminoiminomethyl)amino]propyl]-2-(3-phenoxyphenyl)-5-[[[2-(2-pyridinyl)ethyl]amino]carbonyl]-1H-benzimidazole-1-acetamide], on human MrgX2 receptor, the “Human-MrgX2 pEC50” value is given as “nr” and the “Human-MrgX2 Eff(%)” value is 4%. Also, at simian MrgX1 receptor, the Emax was found to be 160%. Moreover, on simian MrgX2 receptor, the “Monkey-MrgX2 Eff(%)” value amounted to 4%. Moreover, on human MrgX1 receptor [1], the “MrgX1 pEC50” value amounted to 6.4 and the “MrgX1 Eff %” value came out at 106%. Further, on human MrgX1 receptor [2], the EC50 is 158 nM and the “Human-MrgX1 Eff(%)” value was 176%.
On to `CN(CCc1ccccn1)C(=O)c1ccc2c(c1)nc(-c1cccc(Oc3ccccc3)c1)n2[C@@H](CCCNC(=N)N)C(N)=O` [Compound 4, (α^1R)-α-[3-[(aminoiminomethyl)amino]propyl]-5-[[methyl[2-(2-pyridinyl)ethyl]amino]carbonyl]-2-(3-phenoxyphenyl)-1H-benzimidazole-1-acetamide], for which, at human MrgX2 receptor, the “Human-MrgX2 pEC50” value is recorded as “nr” and the “Human-MrgX2 Eff(%)” value is on record as 46%. Further, the Emax on simian MrgX1 receptor worked out at 107%. Also, at simian MrgX2 receptor, the “Monkey-MrgX2 Eff(%)” value turned out to be 18%. Besides, on human MrgX1 receptor [1], the “MrgX1 pEC50” value is 6.7 and the “MrgX1 Eff %” value is given as 112%. For the same molecule, at human MrgX1 receptor [2], the EC50 is 1000 nM and the “Human-MrgX1 Eff(%)” value turned out to be 325%.
As for `COc1ccc(NC(=O)c2ccc3c(c2)nc(-c2cccc(Oc4ccccc4)c2)n3C(CCCNC(=N)N)C(N)=O)cc1` (stereo not drawn) [Compound 27], on human MrgX2 receptor, the “Human-MrgX2 pEC50” value is listed as “nr” and the “Human-MrgX2 Eff(%)” value was 4%. Further, at human MrgX1 receptor [2], the “Human-MrgX1 pEC50” value came to 6.1 and the “Human-MrgX1 Eff(%)” value came to 133%.
The matching figures for `CCCCNC(=O)c1ccc2c(c1)nc(-c1cccc(Oc3ccccc3)c1)n2C(CCCNC(=N)N)C(N)=O` (stereo not drawn) [Compound 30]: “nr”, 11%, 6.2 and 150%.
On to `N=C(N)NCCCC(C(N)=O)n1c(-c2cccc(Oc3ccccc3)c2)nc2cc(C(=O)Nc3nccs3)ccc21` (stereo not drawn) [Compound 31], for which, on human MrgX2 receptor, the “Human-MrgX2 pEC50” value is listed as “nr” and the “Human-MrgX2 Eff(%)” value was found to be 6%. Moreover, at human MrgX1 receptor [2], the “Human-MrgX1 pEC50” value was determined as 5.6 and the “Human-MrgX1 Eff(%)” value worked out at 73%.
